Values joined by “and” are separate entries in the source; they are usually repeats but may differ in a detail not shown here. Equal entries are not always repeated. Toxic doses and inconclusive results are not listed. No stated cut-off is given here; in the data, active means T/C of 150% or more; inactive means T/C below 125%.
Tested on: L1210 leukemia ip in BDF1 mice, survival T/C
Experiment: NCI In Vivo Anticancer Drug Screen. Data for tumor model L1210 Leukemia (intraperitoneal) in B6D2F1 (BDF1) mice
Details: endpoint: mean survival time, higher = longer survival
How it was run: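 Mice bearing the transplanted tumor received compound or vehicle. Survival of the treated group was divided by that of the vehicle-treated control group to give the ratio.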

[1] = dose: 100.0 mg/kg/injection, schedule: Q01DX009 (ip), vehicle: saline sonified
[2] = dose: 200.0 mg/kg/injection, schedule: Q01DX009 (ip), vehicle: saline sonified
[3] = dose: 400.0 mg/kg/injection, schedule: Q01DX009 (ip), vehicle: saline sonified
[4] = dose: 100.0 mg/kg/injection, schedule: Q01DX001 (ip), vehicle: saline with Tween-80
[5] = dose: 200.0 mg/kg/injection, schedule: Q01DX001 (ip), vehicle: saline with Tween-80
[6] = dose: 100.0 mg/kg/injection, schedule: Q04DX003 (ip), vehicle: Klucel (hydroxypropylcellulose) (HPC)
[7] = dose: 200.0 mg/kg/injection, schedule: Q04DX003 (ip), vehicle: Klucel (hydroxypropylcellulose) (HPC)
[8] = dose: 400.0 mg/kg/injection, schedule: Q04DX003 (ip), vehicle: Klucel (hydroxypropylcellulose) (HPC)
[9] = dose: 400.0 mg/kg/injection, schedule: Q01DX001 (ip), vehicle: saline with Tween-80
[10] = dose: 100.0 mg/kg/injection, schedule: Q01DX009 (ip), vehicle: saline with Tween-80
[11] = dose: 200.0 mg/kg/injection, schedule: Q01DX009 (ip), vehicle: saline with Tween-80
[12] = dose: 400.0 mg/kg/injection, schedule: Q01DX009 (ip), vehicle: saline with Tween-80
[13] = dose: 100.0 mg/kg/injection, schedule: Q01DX001 (ip), vehicle: saline
[14] = dose: 200.0 mg/kg/injection, schedule: Q01DX001 (ip), vehicle: saline
[15] = dose: 400.0 mg/kg/injection, schedule: Q01DX001 (ip), vehicle: saline
[16] = dose: 100.0 mg/kg/injection, schedule: Q04DX002 (ip), vehicle: saline with Tween-80
[17] = dose: 200.0 mg/kg/injection, schedule: Q04DX002 (ip), vehicle: saline with Tween-80
[18] = dose: 400.0 mg/kg/injection, schedule: Q04DX002 (ip), vehicle: saline with Tween-80
[19] = dose: 62.0 mg/kg/injection, schedule: Q01DX Z (ip), vehicle: carboxymethylcellulose (CMC)
[20] = dose: 125.0 mg/kg/injection, schedule: Q01DX Z (ip), vehicle: carboxymethylcellulose (CMC)

Measured: T/C

COc1ccc2c(c1C)CCC1(COC(C)=O)CC(C)(O)C(O)CC21 (stereo unspecified)
inactive: [1] 96 % of control | [2] 94 % of control | [3] 93 % of control

CCCCCNCCC[P+](c1ccccc1)(c1ccccc1)c1ccccc1
inactive: dose: 25.0 mg/kg/injection, schedule: Q04DX002 (ip), vehicle: saline 98 % of control | dose: 50.0 mg/kg/injection, schedule: Q04DX002 (ip), vehicle: saline 105 % of control | dose: 100.0 mg/kg/injection, schedule: Q04DX002 (ip), vehicle: saline 119 % of control

COC(=O)c1ccc(N(C)Cc2cnc3[nH]c(N)nc(=S)c3n2)cc1
inactive: dose: 50.0 mg/kg/injection, schedule: Q01DX001 (ip), vehicle: saline with Tween-80 100 % of control | [4] 94 % of control | [5] 94 % of control

ClC1=C(Cl)C2(Cl)C(Br)C(Br)C1(Cl)C2(Cl)Cl (stereo unspecified)
inactive: [1] 95 % of control | [6] 102 % of control | [2] 96 % of control | [7] 93 % of control | [3] 95 % of control | [8] 96 % of control

CC1(C)CCC(C)(C)C(=O)C1=O
inactive: dose: 10.0 mg/kg/injection, schedule: Q01DX009 (ip), vehicle: Klucel (hydroxypropylcellulose) (HPC) 105 % of control | dose: 10.0 mg/kg/injection, schedule: Q04DX003 (ip), vehicle: Klucel (hydroxypropylcellulose) (HPC) 97 % of control | dose: 20.0 mg/kg/injection, schedule: Q01DX001 (ip), vehicle: Klucel (hydroxypropylcellulose) (HPC) 103 % of control | dose: 20.0 mg/kg/injection, schedule: Q01DX009 (ip), vehicle: Klucel (hydroxypropylcellulose) (HPC) 89 % of control | dose: 20.0 mg/kg/injection, schedule: Q04DX003 (ip), vehicle: Klucel (hydroxypropylcellulose) (HPC) 102 % of control | dose: 40.0 mg/kg/injection, schedule: Q01DX001 (ip), vehicle: Klucel (hydroxypropylcellulose) (HPC) 102 % of control | dose: 40.0 mg/kg/injection, schedule: Q01DX009 (ip), vehicle: Klucel (hydroxypropylcellulose) (HPC) 89 % of control | dose: 40.0 mg/kg/injection, schedule: Q04DX003 (ip), vehicle: Klucel (hydroxypropylcellulose) (HPC) 100 % of control

C[Si](F)(c1cccc2ccccc12)c1cccc2ccccc12
inactive: [4] 97 % of control | [5] 103 % of control | [9] 102 % of control

F[Si](c1ccccc1)(c1ccccc1)c1cccc2ccccc12
inactive: [4] 96 % of control | [10] 98 % of control | [5] 102 % of control | [11] 92 % of control | [9] 94 % of control | [12] 93 % of control

O=C(Nc1ccc(F)c(Cl)c1)Oc1ccc(OCc2ccccc2)cc1
inactive: [6] 94 % of control | [7] 94 % of control | [8] 95 % of control

CC(C)CCOC(OCCC(C)C)OCCC(C)C
inactive: [13] 100 % of control | [14] 97 % of control | [15] 105 % of control

CCOCc1nc(N)nc(N)c1-c1ccc(Cl)c(Cl)c1
inactive: dose: 100.0 mg/kg/injection, schedule: Q01DX001 (ip), vehicle: carboxymethylcellulose (CMC) 97 % of control | dose: 200.0 mg/kg/injection, schedule: Q01DX001 (ip), vehicle: carboxymethylcellulose (CMC) 89 % of control | dose: 400.0 mg/kg/injection, schedule: Q01DX001 (ip), vehicle: carboxymethylcellulose (CMC) 108 % of control

CCc1cc(C(C)=O)c(CC)s1
inactive: dose: 100.0 mg/kg/injection, schedule: Q01DX009 (sc), vehicle: olive oil, sesame oil, peanut oil 94 % of control | dose: 100.0 mg/kg/injection, schedule: Q04DX003 (sc), vehicle: olive oil, sesame oil, peanut oil 104 % of control | dose: 200.0 mg/kg/injection, schedule: Q01DX009 (sc), vehicle: olive oil, sesame oil, peanut oil 97 % of control | dose: 200.0 mg/kg/injection, schedule: Q04DX003 (sc), vehicle: olive oil, sesame oil, peanut oil 100 % of control | dose: 400.0 mg/kg/injection, schedule: Q01DX009 (sc), vehicle: olive oil, sesame oil, peanut oil 104 % of control | dose: 400.0 mg/kg/injection, schedule: Q04DX003 (sc), vehicle: olive oil, sesame oil, peanut oil 109 % of control

FC(F)(F)c1cccc(NC(=S)Nc2ccccc2S)c1
inactive: [10] 103 % of control | [16] 93 % of control | [11] 98 % of control | [17] 96 % of control | [12] 124 % of control | [18] 101 % of control

COc1ccc(OC)c(NC(=O)c2cc3ccccc3cc2OC(=O)Nc2cc(Cl)ccc2OC)c1
inactive: [10] 94 % of control | [16] 103 % of control and 112 % of control | dose: 100.0 mg/kg/injection, schedule: Q04DX003 (ip), vehicle: saline with Tween-80 103 % of control | [11] 98 % of control and 89 % of control | [17] 97 % of control and 87 % of control | dose: 200.0 mg/kg/injection, schedule: Q04DX003 (ip), vehicle: saline with Tween-80 102 % of control | [12] 102 % of control and 89 % of control | [18] 101 % of control and 91 % of control | dose: 400.0 mg/kg/injection, schedule: Q04DX003 (ip), vehicle: saline with Tween-80 97 % of control

O=C(NCCCCCCCCCNC(=O)Nc1ccc(C2=NCCN2)cc1)Nc1ccc(C2=NCCN2)cc1
inactive: [19] 102 % of control | [20] 100 % of control

CNC(=Nc1ccc(NC(=O)NC(=O)c2ccc(C(=O)NC(=O)Nc3ccc(N=C(NC)c4ccccc4)cc3)cc2)cc1)c1ccccc1
inactive: [19] 88 % of control | [20] 104 % of control | dose: 250.0 mg/kg/injection, schedule: Q01DX Z (ip), vehicle: carboxymethylcellulose (CMC) 92 % of control | dose: 500.0 mg/kg/injection, schedule: Q01DX Z (ip), vehicle: carboxymethylcellulose (CMC) 95 % of control

CCOC(=S)SCC(=O)CSC(=S)OCC
inactive: dose: 25.0 mg/kg/injection, schedule: Q04DX002 (ip), vehicle: Klucel (hydroxypropylcellulose) (HPC) 103 % of control | dose: 50.0 mg/kg/injection, schedule: Q04DX002 (ip), vehicle: Klucel (hydroxypropylcellulose) (HPC) 97 % of control | dose: 100.0 mg/kg/injection, schedule: Q04DX002 (ip), vehicle: Klucel (hydroxypropylcellulose) (HPC) 110 % of control

CCOC(C)=NC1=C(C#N)CP(c2ccccc2)CC1 (stereo unspecified)
inactive: [16] 103 % of control | [17] 95 % of control | [18] 92 % of control

CC1CN1P(=O)(Oc1cccc2ccccc12)N1CC1C (stereo unspecified)
inactive: dose: 50.0 mg/kg/injection, schedule: Q01DX001 (ip), vehicle: saline 96 % of control | [13] 100 % of control | dose: 178.0 mg/kg/injection, schedule: Q01DX001 (ip), vehicle: saline 101 % of control and 109 % of control | [14] 113 % of control | dose: 267.0 mg/kg/injection, schedule: Q01DX001 (ip), vehicle: saline 101 % of control and 103 % of control | [15] 101 % of control and 104 % of control | dose: 600.0 mg/kg/injection, schedule: Q01DX001 (ip), vehicle: saline 110 % of control and 116 % of control

CNc1ccccc1Cc1ccccc1
inactive: dose: 100.0 mg/kg/injection, schedule: Q01DX009 (ip), vehicle: Klucel (hydroxypropylcellulose) (HPC) 96 % of control | [6] 103 % of control | dose: 200.0 mg/kg/injection, schedule: Q01DX009 (ip), vehicle: Klucel (hydroxypropylcellulose) (HPC) 99 % of control | [7] 93 % of control | [8] 98 % of control

— PubChem BioAssay AID248 (DTP/NCI, 2004)
